Entries after “also recorded” stand apart in the source; their conditions may differ.
How the values were obtained:
[1] = system: Z24−/− mice; assay: Senolytic treatment of progeroid Z24−/− mice, articular cartilage degeneration / OA; assay type: in vivo; settings: for incidence/severity of age-related disorders including osteoarthritis (OA): progeroid mice accelerated aging model
Excerpt: The Zmpste24−/− (Z24−/−) model of Hutchinson-Gilford Progeria Syndrome (HGPS) was used to model not only HGPS musculoskeletal decline, but also as a pre-clinical aging model due to its predictable and accelerated aging phenotypes. Z24−/− animals are short lived (˜6 months) and have severe musculoskeletal abnormalities including weight loss, dystonia, sarcopenia, osteoporosis and as reported herein, early signs of bone loss and spontaneous osteoarthritis (OA).
As a proof of concept for the potential of senolytics to reduce AC degeneration, a pilot study was conducted with Dasatinib+Quercitin (D/Q; 5 mg/kg; 50 mg/kg). Z24−/− mice were administered D/Q via oral gavage as a single dose (D/Qsin) at 4 months of age, or monthly dose starting at 2 months of age (D/Qmul) prior to sacrifice at 5 months.

[2] = system: human adipose-derived stem cells (ADSCs); assay: Senescent cells in culture-expanded adipose-derived stem cells, staining for senescence-associated heterochromatin foci (H2AX, H3K9); assay type: cell-based
Excerpt: In preliminary experiments (FIG. 4), pre-existing senescent cells were found in cultured human adipose-derived stem cells (ADSCs). The ability of these cells to produce SASPs can induce significant damage to other stem cells or endogenous cells once re-administered into the intra-articular space. Thus, avoiding the proliferation of senescent cells from long-term expansion is critical to prevent these cells from compromising the ability of adult stem cells to repair cartilage. […] ADSCs from a young person (YF) and old person (OF) were cultured to passage 4 using normal proliferation media (DMEM/F-12, 10% FBS, 1% penicillin/streptomycin). The cells were subsequently treated with 50 μM of Fisetin for 24 hours and then cultured for 48 hours. Senescent cells were identified using antibodies for senescence-associated heterochromatin foci. […] These experiments support that Fisetin can eliminate senescent cells and SASPs in expanded stem cell populations, and this may apply to harvested tissues such as BMC from older OA patients that likely contain senescent cells (see FIGS. 2A-4, above).

[3] = system: osteochondral defect in the patellar groove of New Zealand White rabbits; assay: Rabbit osteochondral defect + bone marrow stimulation (BMS) with oral Fisetin, oral Losartan and/or BMAC; assay type: in vivo; settings: for Microscopic evaluation and micro-CT: 12 weeks postoperatively, with or without BMAC, preliminary; for healing capacity of BMS-mediated osteochondral defects: compared with BMS alone, preliminary results
Procedure: Bone Marrow Collection and BMAC Processing for Autologous Transplant: New Zealand White rabbits were anesthetized to collect bone marrow aspirate (BMA) using an 18 G heparinized spinal needle through both iliac crests simultaneously by two surgeons for the purpose of preparing bone marrow aspirate concentrate (BMAC). Bone marrow samples were collected in 10 ml syringes containing ACD-A as an anticoagulant (˜1.5 ml of ACD-A per 10 ml sample), processed under sterile BSCs, and a benchtop centrifuge was used to prepare BMACs. Filters were also used for BMA prior to processing into BMACs. These procedures were performed under sterile conditions.
A 5 mm diameter osteochondral defect was created in the patellar groove of bilateral knees for 64 New Zealand White rabbits (128 knees). Under a sterile technique, a midline 3 cm incision was made in a knee flexed at approximately 30° and approached intra-articularly through a medial parapatellar incision. The patella was dislocated, and a 5 mm diameter osteochondral defect was created in the patellar groove (depth: 2 mm), followed by BMS. To allow bone marrow MSCs to be introduced into the defect space, five equally spaced holes of 2 mm depth were drilled into the subchondral bone using a 0.7 mm burr. […] Once the creation of the osteochondral defect and the BMS procedure was completed, the joint capsule was closed and 0.5 ml of BMAC was injected into the joint cavity of the left knee.
(§1) Post-surgical evaluations were to be conducted at two time points: 6 & 12 weeks. Autologous BMAC was injected into the unilateral knee joint cavity immediately after surgery, with no BMAC injection on the other side. Each rabbit was orally treated with Fisetin, Losartan, or a combination of the two biologics from the day after surgery until the day of euthanasia, for comparison with the untreated group. Rabbits were sacrificed 6 weeks or 12 weeks postoperatively. The experimental groups were as follows (N-8 per group): 1) OD+BMS; 2) OD+BMS+oral Fisetin; 3) OD+BMS+oral Losartan; 4) OD+BMS+oral Fisetin+oral Losartan; 5) OD+BMS+BMAC; 6) OD+BMS+BMAC+oral Fisetin; 7) OD+BMS+BMAC+oral Losartan; and 8) OD+BMS+[…].

[4] = system: Superoxide Dismutase 1 (SOD1); assay: qPCR gene expression analysis of synovium harvested from the knee joint (rabbit OD + BMS study); assay type: in vivo, New Zealand White rabbits; settings: Fisetin-treated group vs control group (p<0.01)
Procedure: as §1

[5] = system: PBMCs from fresh human peripheral blood; assay: Fisetin treatment of isolated PBMCs, C12FDG / DRAQ7 flow cytometry; assay type: cell-based
Excerpt: A flow cytometry-based approach to assess senescent total PBMCs from fresh human peripheral blood was optimized. Cells were identified using FSC and SSC controls (FIG. 19A), while senescent cells, or C12FDG+ events, were identified with an emission of 514 nm (green channel).
To examine cellular phenotypes of C12FDG-stained cells, low, moderate, and high populations were sorted using FACS for two study participants (FIG. 20A). […] Using the same methodology, the rate and senolytic efficacy of Fisetin treatment were determined on PBMCs directly at 1, 4, 18, and 24 hr timepoints. […] Furthermore, the rate of senolytic activity of Fisetin was faster versus other known senotherapeutic drugs such as metformin, dasatinib, or quercetin (FIG. 21D).
Thus, it was next tested whether the reduction of highly senescent cells by Fisetin was associated with co-incident cell death. To this end, cells were co-stained with the viability stain DRAQ7.

[6] = system: senescent CD3+ T-Cells and plasma biomarkers; assay: Single case: patient on Fisetin, senescent CD3+ T-Cells (C12FDG) and plasma biomarkers; assay type: in vivo, human; settings: 150 days of Fisetin 100 mg/day
Procedure: Another flow cytometry-based approach was optimized to assess senescent total PBMCs and CD3+ T-Cells from fresh human peripheral blood. For this approach, T-Cells were isolated from PBMCs, washed, then stained with the senescence marker C12FDG for 1 hr, and then used for flow cytometry analysis. Cells were identified using FSC and SSC controls, while senescent cells, or C12FDG+ events, were identified with an emission of 514 nm (green channel).
Thus, it was tested whether Fisetin could reduce senescent T-Cells and plasma biomarkers for OP in a single patient enrolled in the study that disclosed Fisetin use between blood draws. […] This was commensurate with a reduction in OP markers OPG, OPN, and SOST in addition to the pro-inflammatory SASP marker TNF-α (FIG. 25B). […] In addition, in a single case study, C12FDG staining was sensitive enough to detect reductions in senescent T-Cells associated with reduction in OP and SASP biomarkers following Fisetin therapy.

[7] = system: bone marrow mesenchymal stem cells (BM-MSCs); assay: Senescent cells in bone marrow mesenchymal stem cells after Fisetin, C12FDG flow cytometry; assay type: cell-based, human; settings: 33 μM Fisetin 24 hours, passage 3
Procedure: Reduction in senescent cells in BMSCs after senolytic treatment: To determine a reduction in senescent cells in bone marrow stem cells after senolytic therapy, approximately 5 mL of bone marrow concentrate were obtained from a person. The BMC samples were immediately processed further to isolate the mononuclear layer and plated in a T25 flask to expand BM-MSCs. Bone marrow cells were pre-plated for 3-weeks in basal culture medium (CM) and passaged with CM+Fibroblast Growth Factor (FGF) to expand bone marrow mesenchymal stem cells (BM-MSCs). At passage 3, confluent BM-MSCs were treated with CM+FGF, 33 μM of DMSO, or 33 μM of Fisetin+GM+FGF for 24-hours in a 12-well plate. Then, […] of bafilomycin (inhibits lysosomal acidification) and […] of C12FDG (senescent label) were used to assess senescence via flow cytometry. In BM-MSCs at passage 3, the number of senescent in the Fisetin treated BM-MSCs was reduced by approximately 24% compared to the DMSO treated BM-MSCs, and approximately a 5% reduction of senescent cells was observed when compared to control BM-MSCs (FIG. 27).

[8] = system: osteochondral defect in the patellar groove of New Zealand White rabbits; assay: Rabbit osteochondral defect model, microfracture plus oral Losartan; assay type: in vivo
Procedure: An osteochondral defect (diameter: 5 mm, depth: 2 mm) was made in the patellar groove of 48 New Zealand White rabbits. The rabbits were divided into 3 groups (8/group/time point): control (osteochondral defect only), microfracture (defect+microfracture), and Losartan (defect+microfracture+Losartan). For the Losartan group, a dose of 10 mg/kg/day of Losartan was orally administrated by mixing with the chew treat daily.

[9] = system: osteochondral defect in the patellar groove of New Zealand White rabbits; settings: 6 weeks after surgery; Losartan 10 mg/kg/day oral; cited from earlier work

Question: Which “incidence/severity of age-related disorders including osteoarthritis (OA)” value (“incidence/severity” below) [1] does the source give for `O=c1c(O)c(-c2ccc(O)c(O)c2)oc2cc(O)cc(O)c12` [Quercetin] here?
Answer: Its value is “can reduce”.

Question: For `O=c1c(O)c(-c2ccc(O)c(O)c2)oc2cc(O)ccc12` [Fisetin, 2-(3,4-dihydroxyphenyl)-3,7-dihydroxychromen-4-one], which “number of senescent cells in the expanded ADSCs in vitro” value ([2]; 50 μM Fisetin for 24 hours, then cultured 48 hours, passage 4 ADSCs from young and old female) is on record?
Answer: Its value is “significantly reduced”.

Question: What about the “-H2AX and H3K9 in Adipose Derived Stem Cells” value ([2]; FIG. 4, senescence quantified by H2AX and H3K9 staining) of the same compound?
Answer: Its value is “reduces”.

Question: And the articular cartilage degeneration ([1]; murine model of natural and accelerated (progeria) aging)?
Answer: Its articular cartilage degeneration is “delay”.

Question: What about the “incidence/severity” value [1] of the same compound?
Answer: Its value is “can reduce”.

Question: And the “Macroscopic assessment, gross images compared to the control group” value ([3]; 6 weeks postoperatively, control = BMS, without medication, without BMAC)?
Answer: The value was “significant improvement”.

Question: What about the “Microscopic evaluation and micro-CT” value [3] of the same compound?
Answer: Its value is “trend toward improvement”.

Question: What about the “healing capacity of BMS-mediated osteochondral defects” value [3] of the same compound?
Answer: Its value is “enhanced”.

Question: And the “expression level of Superoxide Dismutase 1 (SOD1) in the synovium” value [4]?
Answer: The value was “significantly higher”.

Question: What about the “time of maximum reduction of high senescent cells” value ([5]; Fisetin on PBMCs directly) of the same compound?
Answer: Its value is 4 h.

Question: And the “time to significant reduction of high senescent cells” value ([5]; Fisetin on PBMCs directly)?
Answer: Its value is ≤ 1 h.

Question: And the “high senescent cell counts and percent senescent cells” value ([5]; Fisetin on PBMCs directly, timepoints 1, 4, 18, 24 hr)?
Answer: Its value is “significantly reduced”.

Question: And the “DRAQ7+ cells (cell death) with decrease in highly senescent cells” value ([5]; co-stained with viability stain DRAQ7, 1 and 4 hrs)?
Answer: The value was “concomitant increases”.

Question: And the “effect on highly senescent cells vs moderately senescent cells” value ([5]; isolated PBMCs (FIG. 22D))?
Answer: Its value is “primarily affect only highly senescent cells and not moderately senescent cells; also recorded: selectively kills highly senescent cells”.

Question: And the “rate of senolytic activity” value ([5]; versus metformin, dasatinib, or quercetin (FIG. 21D))?
Answer: Its value is “faster”.

Question: What about the “levels of moderately and highly senescent CD3+ T-Cells” value [6] of the same compound?
Answer: Its value is “reduces”.

Question: What about the “OP marker OPG in plasma” value ([6]; pre- vs. post-Fisetin) of the same compound?
Answer: Its value is “reduction”.

Question: And the “OP marker OPN in plasma” value ([6]; pre- vs. post-Fisetin)?
Answer: The value was “reduction”.

Question: What about the “OP marker SOST in plasma” value ([6]; pre- vs. post-Fisetin) of the same compound?
Answer: The value was “reduction”.

Question: And the “pro-inflammatory SASP marker TNF-α in plasma” value ([6]; pre- vs. post-Fisetin)?
Answer: Its value is “reduction”.

Question: And the “reduction of number of senescent cells in BM-MSCs” value ([7]; compared to DMSO treated BM-MSCs)?
Answer: Its value is “approximately 24%”.

Question: And the “reduction of senescent cells in BM-MSCs” value ([7]; compared to control BM-MSCs (CM+FGF))?
Answer: Its value is “approximately 5%”.

Question: For `CO[C@H]1/C=C\C=C(/C)C(=O)NC2=CC(=O)C(NCCN(C)C)=C(C[C@@H](C)C[C@H](OC)[C@H](O)[C@@H](C)/C=C(\C)[C@@H]1OC(N)=O)C2=O` [Alvespimycin], which “incidence/severity” value [1] is on record?
Answer: The value was “can reduce”.

Question: For `CCCCc1nc(Cl)c(CO)n1Cc1ccc(-c2ccccc2-c2nn[nH]n2)cc1` [Losartan], which ICRS macroscopic score ([8]; 12 weeks, Losartan 10 mg/kg/day oral + microfracture) is on record?
Answer: The ICRS macroscopic score was 11.7±0.5.

Question: What about the “modified O'Driscoll score (based on Safranin O staining) compared to the other 2 groups” value ([8]; Losartan 10 mg/kg/day oral + microfracture) of the same compound?
Answer: The value was “significantly higher”.

Question: And the “Immunohistochemistry staining of cartilage (Col2)” value ([8]; Losartan treatment group)?
Answer: Its value is “nearly normal structure with hyaline-like column-arranged chondrocytes”.

Question: What about the “Microscopic evaluation and micro-CT” value [3] of the same compound?
Answer: The value was “trend toward improvement”.

Question: What about the “healing capacity of BMS-mediated osteochondral defects” value [3] of the same compound?
Answer: Its value is “enhanced”.

Question: What about the “articular cartilage repair compared to microfracture or control groups” value [9] of the same compound?
Answer: The value was “significantly improved”.
